Data on two compounds can be found in patent US6753348B2, “BTK inhibitors and methods for their identification and use” (Parker Hughes Institute, priority 1998, dated 2004).

The EC50 is the concentration that produces a half-maximal response. What is called melting point is the temperature, or range, at which the solid turns liquid. By IC50 is commonly meant the midpoint of a concentration-inhibition curve. Lower therefore signals higher potency.

In one data set the test system is RBL-2H3 rat mast cells. The data set can be described thus: IgE/FcεRI receptor mediated leukotriene C4 release, RBL-2H3 mast cells. The format is cell-based. The following applies: RBL-2H3, IgE/DNP-BSA challenge, 30 min pre-incubation, 1-100 μM, N = 3-4, read-out: EC50 (mean ± SEM), inhibition of leukotriene C4 release. The protocol:
Mast Cell Cultures. RBL-2H3 mast cells were a gift from Dr. Reuben P. Siraganian (Laboratory of Microbiology and Immunology, National Institute of Dental Research, National Institute of Health). The cells were maintained as monolayer cultures in 75- or 150-cm^2 flask in Eagle's essential medium supplemented with 20% fetal calf serum. Human fetal livers (16 to 21 weeks of gestational age) were obtained from prostaglandin-induced human abortuses. Subsequently, single cell suspensions were prepared and mononuclear cells were isolated by centrifugation on Ficoll-Hypaque gradients as described (Malaviya, R., et al., (1999) J Biol Chem, 274, 27028-27038). Isolated cells were cultured for 8 weeks in the presence of 100 ng/ml rhSCF, 2 ng/ml rhIL-4 (Malaviya, R., et al., (1999) J Biol Chem, 274, 27028-27038; Xia, H. Z., et al., (1997) J Immunol, 159, 2911-2921). Culture medium was replaced with fresh medium once a week for the first 2 weeks and twice a week thereafter. All human tissue specimens were used following the guidelines of the Parker Hughes Institute Institutional Review Board on the Use of Human Subjects in Research for secondary use of pathologic or surgical tissue. At the end of the 8 weeks the fetal liver derived human mast cell culture contained 70-90 percent mast cells, based on toluidine blue and tryptase staining (Xia, H. Z., et al., (1997) J Immunol, 159, 2911-2921).
Stimulation of Mast Cells. RBL-2H3 rat mast were sensitized with monoclonal anti-DNP IgE antibody (0.24 mg/ml) for 1 h at 37° C. in a 48-well tissue culture plate. Unbound IgE was removed by washing the cells with PIPES-buffered saline. After washing, PIPES-buffered saline containing 1 mM calcium chloride was added to the monolayers of the RBL-2H3 cells. The cells were challenged with 20 ng/ml DNP-BSA for 30 min at 37° C. The plate was centrifuged at 200 g for 10 min at 4° C. Supernatants were removed and saved. Fetal liver-derived human mast cells were resuspended in culture medium at a cell density of 5×10^6/ml and sensitized with human IgE (150 μg/ml) for 3 h at 4° C. After sensitization the cells were washed with tyrode buffer containing 1 mM calcium and 1 mM magnesium and challenged with mouse monoclonal anti-human IgE (40 μg/ml) for 30 min at 37° C. To study the effect of test drugs, RBL-2H3 rat mast cells or human mast cells were incubated with the drugs at the indicated concentrations or vehicle for 30 min prior to antigen challenge.
Mediator Release Assay. Leukotriene C4 levels were estimated in cell free supernatants of mast cells by immunoassay (Malaviya, R. and Abraham, S. N., (1995) Methods Enzymol, 253, 27-43).
Mast cells release large amounts of leukotrienes upon IgE receptor ligation. Because of the reported ability of LFM as a mast cell inhibitor, we utilized 13 analogues of LFM (Table 1) and examined their effect on IgE/FcεERI receptor mediated mast cell leukotriene C4 release. RBL-2H3 cells, a mucosal mast cell line, were treated with 5 different concentrations of the compounds ranging from 1 μM to 100 μM or vehicle for 30 min before challenge with antigen (DNP-BSA) at 37° C. Leukotriene C4 release was quantitated in the extracellular medium employing a previously described ELISA (Malaviya, R. and Abraham, S. N., (1995) Methods Enzymol, 253, 27-43).

Data set [1] deals with OVA-sensitized and challenged mice. The data set can be described thus: Eosinophil infiltration in bronchoalveolar lavage of OVA challenged mice. It is filed as in vivo, mouse. Particulars: ovalbumin sensitized and challenged mice, pretreatment. An excerpt:
FIG. 29: Inhibition of eosinophil infiltration in bronchoalveolar lavage of OVA challenged mice by LFM-A8. The lungs of the mice were lavaged after methacholine challenge and eosinophil numbers were counted. The results of eosinophils are expressed as percent of total cell counts. The data points represent the mean±SEM values obtained from 5-6 mice. *P<0.05 compared to vehicle-treated control, as determined by Student's t test.
Assessment of Eosinophil Infiltration. After airway responsiveness measurements, lungs were lavaged thoroughly with 1 ml saline. The lavage fluid was centrifuged and the supernatant was removed. The cell pellet was resuspended in saline containing 0.1% BSA to give a final cell concentration of 0.1×10^6/ml. Cytospin smears made from the cell suspension were stained with Wright-Giemsa and the number of eosinophils were counted.

Data set [2] deals with T1, Insulin-Receptor Kinase (IRK) (Homo sapiens, UniProt P06213).
T1 construct: IRK was immunoprecipitated from the lysates with an anti-IRb antibody
The data set can be described thus: Cell-free tyrosine kinase inhibition assay IRK from HepG2 cells. The format is biochemical.

T1 sequence (P06213 28-1382): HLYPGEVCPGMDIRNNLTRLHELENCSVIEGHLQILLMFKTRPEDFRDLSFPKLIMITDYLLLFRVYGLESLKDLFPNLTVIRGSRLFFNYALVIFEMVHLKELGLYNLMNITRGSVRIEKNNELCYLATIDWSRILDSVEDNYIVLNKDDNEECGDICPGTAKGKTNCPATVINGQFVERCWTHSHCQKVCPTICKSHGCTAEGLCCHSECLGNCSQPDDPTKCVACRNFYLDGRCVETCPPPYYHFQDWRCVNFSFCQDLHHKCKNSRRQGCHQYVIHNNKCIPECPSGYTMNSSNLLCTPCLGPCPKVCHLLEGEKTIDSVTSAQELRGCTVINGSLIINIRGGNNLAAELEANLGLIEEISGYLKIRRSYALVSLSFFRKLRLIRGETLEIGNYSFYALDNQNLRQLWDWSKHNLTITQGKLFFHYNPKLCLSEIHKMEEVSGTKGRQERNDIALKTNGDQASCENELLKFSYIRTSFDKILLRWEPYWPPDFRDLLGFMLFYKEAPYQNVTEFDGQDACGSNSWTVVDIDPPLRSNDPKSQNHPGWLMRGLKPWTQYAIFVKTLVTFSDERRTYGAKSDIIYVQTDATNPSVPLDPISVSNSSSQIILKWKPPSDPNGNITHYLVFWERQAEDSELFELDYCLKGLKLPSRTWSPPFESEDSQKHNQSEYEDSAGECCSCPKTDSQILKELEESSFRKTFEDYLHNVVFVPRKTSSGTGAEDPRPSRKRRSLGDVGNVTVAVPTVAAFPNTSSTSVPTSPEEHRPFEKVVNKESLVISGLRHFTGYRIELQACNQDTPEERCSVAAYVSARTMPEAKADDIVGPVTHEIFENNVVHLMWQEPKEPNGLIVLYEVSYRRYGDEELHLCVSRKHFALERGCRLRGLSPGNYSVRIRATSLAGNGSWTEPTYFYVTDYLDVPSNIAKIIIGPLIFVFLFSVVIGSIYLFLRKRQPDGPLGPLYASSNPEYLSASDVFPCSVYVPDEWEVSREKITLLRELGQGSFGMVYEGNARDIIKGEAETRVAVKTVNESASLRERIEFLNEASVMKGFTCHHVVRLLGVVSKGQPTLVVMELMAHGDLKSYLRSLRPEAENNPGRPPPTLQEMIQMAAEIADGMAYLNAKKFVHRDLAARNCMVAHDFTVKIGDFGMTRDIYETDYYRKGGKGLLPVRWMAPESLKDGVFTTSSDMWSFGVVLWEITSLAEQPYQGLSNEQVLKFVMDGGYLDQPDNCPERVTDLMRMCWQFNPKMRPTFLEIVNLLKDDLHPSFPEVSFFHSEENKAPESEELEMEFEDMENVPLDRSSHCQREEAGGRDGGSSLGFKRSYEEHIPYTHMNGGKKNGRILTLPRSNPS

`CC(O)=C(C#N)C(=O)Nc1cccc(C(F)(F)F)c1` [LFM-A8, α-Cyano-β-hydroxy-β-methyl-N-[3-(trifluoromethyl)phenyl]-propenamide]: the melting point fell in the range of 182 to 184 °C. Besides, the EC50 in the data set with RBL-2H3 rat mast cells was 28 ± 1 µM. Moreover, the “reduction of numbers of eosinophils in BAL fluid” value in data set [1] stood at 80%.
On to `C/C(O)=C(\C#N)C(=O)Nc1cc(Br)ccc1Br` [LFM-A13, α-Cyano-β-hydroxy-β-methyl-N-(2,5-dibromophenyl)-propenamide], for which the half-inhibitory concentration (IC50) in data set [2] (IRK) is > 278 µM. Besides, in data set [2] (concentrations as high as 100 μg/ml (~278 μM)), the “effect on enzymatic activity of IRK” value was “did not affect the enzymatic activity”.
